The supplement of paper PMC10307832

Assays:
Test in all cases: relative viability (nuclei count vs DMSO), 5 days (fraction); higher = more cells survive
[1] = system: LCLC-103H
Method in brief: (§1)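 Values are medians from duplicate plates. Each reflects relative viability, defined as the nuclei count of treated wells over that of vehicle wells. Lung cancer cell lines in 1536-well plates were pin-tool dosed one day after seeding with one drug alone or with a fixed anchor-drug dose plus five library-drug doses (not always all listed) in √10 steps, then fixed, stained and imaged at 4× after 5 days.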

[2] = system: LXF-289
Method in brief: as §1

[3] = system: NCI-H1355
Method in brief: as §1

[4] = system: NCI-H1651
Method in brief: as §1

[5] = system: NCI-H1755
Method in brief: as §1

[6] = system: NCI-H1792
Method in brief: as §1

[7] = system: NCI-H1915
Method in brief: as §1

[8] = system: NCI-H2170
Method in brief: as §1

[9] = system: NCI-H2347
Method in brief: as §1

[10] = system: NCI-H3122
Method in brief: as §1

[11] = system: NCI-H322M
Method in brief: as §1

[12] = system: NCI-H441
Method in brief: as §1

[13] = system: NCI-H460
Method in brief: as §1

[14] = system: NCI-H520
Method in brief: as §1

[15] = system: NCI-H596
Method in brief: as §1

[16] = system: NCI-H650
Method in brief: as §1

[17] = system: NCI-H661
Method in brief: as §1

[18] = system: NCI-H727
Method in brief: as §1

[19] = system: PC-14
Method in brief: as §1

[20] = system: RERF-LC-KJ
Method in brief: as §1

[21] = system: SK-MES-1
Method in brief: as §1

[22] = system: SW 900
Method in brief: as §1

Structure (SMILES): NC(=O)Nc1cc(-c2cccc(F)c2)sc1C(=O)N[C@H]1CCCNC1 [AZD7762] + O=C(c1cc(Cc2n[nH]c(=O)c3ccccc23)ccc1F)N1CCN(C(=O)C2CC2)CC1 [Olaparib] (partner 8 µM)
- relative viability ([1]; first compound 0.01 µM): 0.827
- relative viability ([1]; first compound 0.03162 µM): 0.705
- relative viability ([1]; first compound 0.1 µM): 0.733
- relative viability ([1]; first compound 0.3162 µM): 0.772
- relative viability ([1]; first compound 1 µM): 0.714
- relative viability ([2]; first compound 0.01 µM): 1.11
- relative viability ([2]; first compound 0.03162 µM): 1.18
- relative viability ([2]; first compound 0.1 µM): 1.21
- relative viability ([2]; first compound 0.3162 µM): 1.16
- relative viability ([2]; first compound 1 µM): 1.28
- relative viability ([3]; first compound 0.01 µM): 0.705
- relative viability ([3]; first compound 0.03162 µM): 0.798
- relative viability ([3]; first compound 0.1 µM): 0.862
- relative viability ([3]; first compound 0.3162 µM): 0.862
- relative viability ([3]; first compound 1 µM): 0.615
- relative viability ([4]; first compound 0.01 µM): 0.184
- relative viability ([4]; first compound 0.03162 µM): 0.202
- relative viability ([4]; first compound 0.1 µM): 0.156
- relative viability ([4]; first compound 0.3162 µM): 0.153
- relative viability ([4]; first compound 1 µM): 0.137
- relative viability ([5]; first compound 0.01 µM): 1.01
- relative viability ([5]; first compound 0.03162 µM): 0.92
- relative viability ([5]; first compound 0.1 µM): 0.957
- relative viability ([5]; first compound 0.3162 µM): 0.855
- relative viability ([5]; first compound 1 µM): 0.619
- relative viability ([6]; first compound 0.01 µM): 0.336
- relative viability ([6]; first compound 0.03162 µM): 0.421
- relative viability ([6]; first compound 0.1 µM): 0.364
- relative viability ([6]; first compound 0.3162 µM): 0.352
- relative viability ([6]; first compound 1 µM): 0.221
- relative viability ([7]; first compound 0.01 µM): 0.275
- relative viability ([7]; first compound 0.03162 µM): 0.308
- relative viability ([7]; first compound 0.1 µM): 0.272
- relative viability ([7]; first compound 0.3162 µM): 0.209
- relative viability ([7]; first compound 1 µM): 0.189
- relative viability ([8]; first compound 0.01 µM): 0.553
- relative viability ([8]; first compound 0.03162 µM): 0.579
- relative viability ([8]; first compound 0.1 µM): 0.535
- relative viability ([8]; first compound 0.3162 µM): 0.423
- relative viability ([8]; first compound 1 µM): 0.254
- relative viability ([9]; first compound 0.01 µM): 0.612
- relative viability ([9]; first compound 0.03162 µM): 0.656
- relative viability ([9]; first compound 0.1 µM): 0.78
- relative viability ([9]; first compound 0.3162 µM): 0.693
- relative viability ([9]; first compound 1 µM): 0.544
- relative viability ([10]; first compound 0.01 µM): 0.681
- relative viability ([10]; first compound 0.03162 µM): 0.527
- relative viability ([10]; first compound 0.1 µM): 0.588
- relative viability ([10]; first compound 0.3162 µM): 0.477
- relative viability ([10]; first compound 1 µM): 0.404
- relative viability ([11]; first compound 0.01 µM): 0.795
- relative viability ([11]; first compound 0.03162 µM): 0.933
- relative viability ([11]; first compound 0.1 µM): 0.85
- relative viability ([11]; first compound 0.3162 µM): 0.627
- relative viability ([11]; first compound 1 µM): 0.354
- relative viability ([12]; first compound 0.01 µM): 0.707
- relative viability ([12]; first compound 0.03162 µM): 0.795
- relative viability ([12]; first compound 0.1 µM): 0.675
- relative viability ([12]; first compound 0.3162 µM): 0.555
- relative viability ([12]; first compound 1 µM): 0.287
- relative viability ([13]; first compound 0.01 µM): 0.441
- relative viability ([13]; first compound 0.03162 µM): 0.35
- relative viability ([13]; first compound 0.1 µM): 0.261
- relative viability ([13]; first compound 0.3162 µM): 0.132
- relative viability ([13]; first compound 1 µM): 0.0653
- relative viability ([14]; first compound 0.01 µM): 0.367
- relative viability ([14]; first compound 0.03162 µM): 0.364
- relative viability ([14]; first compound 0.1 µM): 0.27
- relative viability ([14]; first compound 0.3162 µM): 0.223
- relative viability ([14]; first compound 1 µM): 0.194
- relative viability ([15]; first compound 0.01 µM): 0.723
- relative viability ([15]; first compound 0.03162 µM): 0.631
- relative viability ([15]; first compound 0.1 µM): 0.609
- relative viability ([15]; first compound 0.3162 µM): 0.552
- relative viability ([15]; first compound 1 µM): 0.478
- relative viability ([16]; first compound 0.01 µM): 0.417
- relative viability ([16]; first compound 0.03162 µM): 0.49
- relative viability ([16]; first compound 0.1 µM): 0.494
- relative viability ([16]; first compound 0.3162 µM): 0.446
- relative viability ([16]; first compound 1 µM): 0.337
- relative viability ([17]; first compound 0.01 µM): 0.798
- relative viability ([17]; first compound 0.03162 µM): 0.779
- relative viability ([17]; first compound 0.1 µM): 0.711
- relative viability ([17]; first compound 0.3162 µM): 0.503
- relative viability ([17]; first compound 1 µM): 0.426
- relative viability ([18]; first compound 0.01 µM): 0.735
- relative viability ([18]; first compound 0.03162 µM): 0.723
- relative viability ([18]; first compound 0.1 µM): 0.931
- relative viability ([18]; first compound 0.3162 µM): 0.717
- relative viability ([18]; first compound 1 µM): 0.543
- relative viability ([19]; first compound 0.01 µM): 0.248
- relative viability ([19]; first compound 0.03162 µM): 0.157
- relative viability ([19]; first compound 0.1 µM): 0.0969
- relative viability ([19]; first compound 0.3162 µM): 0.0837
- relative viability ([19]; first compound 1 µM): 0.0568
- relative viability ([20]; first compound 0.01 µM): 0.928
- relative viability ([20]; first compound 0.03162 µM): 0.922
- relative viability ([20]; first compound 0.1 µM): 1.01
- relative viability ([20]; first compound 0.3162 µM): 0.893
- relative viability ([20]; first compound 1 µM): 0.65
- relative viability ([21]; first compound 0.01 µM): 0.831
- relative viability ([21]; first compound 0.03162 µM): 0.828
- relative viability ([21]; first compound 0.1 µM): 0.506
- relative viability ([21]; first compound 0.3162 µM): 0.247
- relative viability ([21]; first compound 1 µM): 0.189
- relative viability ([22]; first compound 0.01 µM): 0.887
- relative viability ([22]; first compound 0.03162 µM): 0.835
- relative viability ([22]; first compound 0.1 µM): 0.727
- relative viability ([22]; first compound 0.3162 µM): 0.949
- relative viability ([22]; first compound 1 µM): 0.47
